Measured values from PubChem BioAssay (NCI).
“And” between values parts separate entries of the source, which are not always exact repeats. Equal values may be shown once.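 How tested: cells in 96-well plates exposed to compound for 48 hours at five concentrations. The concentration for 50% growth inhibition is given as GI50. TGI is the concentration that stops growth completely.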

Assays:
Assay in all cases: NCI anticancer screen, dose series, 48 h
[1] = tested on: UACC-257 melanoma
[2] = tested on: MALME-3M melanoma
[3] = tested on: EKVX NSCLC
[4] = tested on: HOP-92 NSCLC
[5] = tested on: MOLT-4 leukemia
[6] = tested on: A498 renal
[7] = tested on: OVCAR-8 ovarian
[8] = tested on: SF-295 CNS
[9] = tested on: LOX IMVI melanoma
[10] = tested on: UO-31 renal

| Structure (SMILES) | TGI [1] | TGI [2] | TGI [3] [µM] | TGI [4] [µM] | TGI [5] [µM] | TGI [6] | TGI [7] [µM] | TGI [8] | TGI [9] | TGI [10] | GI50 [10] | GI50 [1] [µM] | GI50 [2] [µM] | GI50 [3] [µM] | GI50 [4] [µM] | GI50 [8] [µM] | GI50 [6] [µM] | GI50 [5] [µM] | GI50 [9] [µM] | GI50 [7] |
| --- | --- | --- | --- | --- | --- | --- | --- | --- | --- | --- | --- | --- | --- | --- | --- | --- | --- | --- | --- | --- |
| O=C(Nc1nc2ccc([N+](=O)[O-])cc2s1)C(=O)C(C(=O)c1ccncc1)C1OC(=O)c2ccccc21 (stereo not drawn) | > 100 µM | > 100 µM | > 100 | > 100 | > 100 | > 100 µM | > 100 |  |  |  |  |  |  |  |  |  |  |  |  |  |
| C=C1CCCC2[C@](C)(CC3=C(O)C(=O)C=C(OC)C3=O)[C@@H](C)CC[C@]12C (stereo partly drawn) | 16.4 µM | 9.93 µM | > 100 |  |  |  | > 100 | 13.7 µM | > 100 µM |  |  |  |  |  |  |  |  |  |  |  |
| OCC(O)C(O)C(O)c1nn(-c2ccccc2)c2nc3cc(Cl)c(Cl)cc3nc12 (stereo not drawn) | > 100 µM | 77.7 µM | > 100 |  | 87.6 |  | > 100 | > 100 µM | > 100 µM | > 100 µM |  |  |  |  |  |  |  |  |  |  |
| COc1ccc(-c2ccc(-c3ccc(C(=N)N)cn3)o2)cc1Cl | 4.85 µM | 3.48 µM | 4.26 | 2.44 |  | 5.57 µM |  | 3.27 µM |  | 2.76 µM | 1.43 µM | 2.35 | 1.81 | 2 | 1.12 | 1.65 | 2.05 |  |  |  |
| CC(C)C[C@H](NC(=O)[C@@H](NC(=O)c1cccc(-c2ccccc2)n1)[C@@H](C)O)B(O)O | 0.0319 µM and 0.0213 µM | 0.00838 µM and < 0.0196 µM |  | 0.119 | 0.00887 | 0.0061 µM and < 0.0178 µM | > 51.6 | 0.0553 µM and 0.0262 µM | 0.0181 µM and 0.0119 µM | 0.0849 µM and 0.114 µM | 0.0215 µM and 0.0183 µM | 0.00502 | 0.00297 |  | 0.0209 | 0.0102 | 0.00247 | 0.00289 | 0.00473 | 0.0261 µM and 0.0238 µM |
| Cc1ccc(C2=C(c3ccc(C)cc3)C(c3ccc(C)cc3)=C(c3ccc(C)cc3)C2=O)cc1 | > 100 µM | > 100 µM | > 100 |  | > 100 | > 100 µM | > 100 | > 100 µM |  | > 100 µM |  |  |  |  |  |  |  |  |  |  |
| COC(=O)[C@H](C)NC(=O)[C@@H](OC)[C@@H]1Cc2cc3cc(OC4CC(OC5CC(O)C(O)C(C)O5)C(O)C(C)O4)c(C)c(O)c3c(O)c2C(=O)[C@H]1OC1CC(OC2CC(OC3CC(C)(O)C(O)C(C)O3)C(O)C(C)O2)C(O)C(C)O1 (stereo partly drawn) | 0.846 µM | 0.315 µM | 35.5 | 7.1 | 4.13 |  | > 50 | > 50 µM | > 50 µM | 3.09 µM | 0.182 µM | 0.052 | 0.0296 | 0.174 | 0.115 | 0.0885 |  | 0.232 | 0.0308 | 0.0461 µM |
| CCCCCCCCCCCCCCCCCCOc1ccccc1CC(=O)NCC[N+](C)(C)C | 51.6 µM | 94 µM | 66 | 7.16 |  | 49.8 µM | 41.9 | 38.9 µM |  | 80.4 µM | 17.9 µM | 23.6 | 14.8 | 18 | 1.92 | 5.09 | 9.55 |  |  | 5.79 µM |
| CC1CCCc2c1c1ccc3c(O)cccc3c1oc2=O (stereo not drawn) | > 100 µM | > 100 µM | 85.9 |  | > 100 |  | > 100 | 33.8 µM | > 100 µM | > 100 µM |  |  |  |  |  |  |  |  |  |  |
| CCN(CC)c1ccc(N=C2C=C(Cl)C(=O)c3ncccc32)c(C)c1 | 7.29 µM | 10.5 µM | 36.8 | 7.2 | 13.8 |  | > 100 | 35.9 µM | 26.9 µM | 41.6 µM |  |  |  |  |  |  |  |  |  |  |
| COc1cc(/C=C\c2ccc(Br)cc2)cc(OC)c1OC | 11.3 µM | 34.8 µM | > 100 | > 100 | 0.326 |  |  |  |  |  |  |  |  |  |  |  |  |  |  |  |
| CCOC(=O)C1=C(Nc2ccc(Br)cc2)OC/C1=N\NC(=O)c1ccccc1O | > 95.3 µM | > 100 µM | > 93.9 |  | 35.2 | 99.3 µM | > 100 | > 100 µM | 20.3 µM | > 50.9 µM |  |  |  |  |  |  |  |  |  |  |
| Fc1ccc2c(c1)C1=C(CO2)C(c2ccc(Cl)cc2)NC(=S)N1 (stereo not drawn) | 95.3 µM |  | > 100 | > 100 | > 100 | 73.7 µM | > 100 | 47.3 µM | 61.7 µM | 84 µM | 27.8 µM | 29.4 |  | 37.4 | 61 | 15.6 | 17.4 | 39.5 | 23 | 42.6 µM |
| CC(=O)OC1CCC2C(=CCC3C2(C)C(=O)CC2(C)C(C4(C)OC(C(C)C)=CC4=O)C(O)CC32C)C1(C)C (stereo not drawn) |  | 47.4 µM | > 100 | > 100 | > 100 | > 100 µM | > 100 |  |  | > 100 µM |  |  |  |  |  |  |  |  |  |  |
| CNC1=C(C(=O)OC)SC(c2ccccc2)(c2ccccc2)SC1 | > 100 µM |  | > 100 | > 100 | > 100 | 85.3 µM | > 100 | 39.4 µM | > 100 µM | > 100 µM | > 100 µM | 9.2 |  | 36.1 | 20.7 | 6.06 | 11.4 | 7.56 | 21.2 | 24.9 µM |
| CCn1c(=O)c2ccccc2n2c(=O)c3cc4ccccc4cc3nc12 | > 100 µM | > 100 µM | > 100 |  | > 100 | > 100 µM | > 100 | 80 µM | > 100 µM | > 100 µM |  |  |  |  |  |  |  |  |  |  |
| CC(C)C[C@H](NC(=O)CCn1ccc2ncccc2c1=O)B(O)O | 44.1 µM | 48.9 µM |  | 60.3 | > 28.7 | 21.3 µM | > 100 | 43.9 µM | 18.7 µM | > 100 µM | 19.6 µM | 8.25 | 5.2 |  | 14.5 | 11.5 | 2.66 | 2.9 | 4.53 | 27.4 µM |
| COc1ccc2c(CCNC(=O)/C=C/c3ccccc3)c(C(C)=O)[nH]c2c1[N+](=O)[O-] | > 100 µM |  |  |  | > 100 | 76.5 µM | > 100 | 12.7 µM | 27.3 µM | > 100 µM |  |  |  |  |  |  |  |  |  |  |
